Source: ChEMBL document CHEMBL1938378, “Synthesis and evaluation of tetrahedral intermediate mimic inhibitors of 3-deoxy-d-manno-octulosonate 8-phosphate synthase” (Bioorg Med Chem Lett, 2012)

What was measured:
[1] = biological target: 2-dehydro-3-deoxyphosphooctonate aldolase (Neisseria meningitidis serogroup B (strain MC58), UniProt Q9JZ55); test: Competitive inhibition of Neisseria meningitidis serotype B strain MC58 ATCC BAA355 KDO8P synthase expressed in Escherichia coli BL21 (DE3) cells using PEP as substrate after 10 to 15 mins by Michaelis-Menten equation
[2] = Competitive inhibition of Acidithiobacillus ferrooxidans KDO8P synthase using PEP as substrate after 10 to 15 mins by Michaelis-Menten equation
[3] = Inhibition of Escherichia coli KDO8P
[4] = Inhibition of Helicobacter pylori KDO8P

Sequence of 2-dehydro-3-deoxyphosphooctonate aldolase (Q9JZ55 whole entry): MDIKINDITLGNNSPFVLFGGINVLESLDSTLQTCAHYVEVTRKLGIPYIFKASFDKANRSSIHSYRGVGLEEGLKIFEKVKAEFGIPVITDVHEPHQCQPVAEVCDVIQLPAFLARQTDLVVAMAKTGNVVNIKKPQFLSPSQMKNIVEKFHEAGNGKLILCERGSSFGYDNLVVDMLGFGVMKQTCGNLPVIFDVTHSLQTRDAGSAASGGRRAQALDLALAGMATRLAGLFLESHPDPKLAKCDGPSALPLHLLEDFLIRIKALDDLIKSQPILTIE

| SMILES | Ki [1] [µM] | Ki [2] [µM] | IC50 [4] [µM] | Ki [3] [µM] |
| --- | --- | --- | --- | --- |
| O=C(O)C(CCCCCCOP(=O)(O)O)OP(=O)(O)O (centres undefined) | 7.9 | 20 | – | – |
| C[C@@H](OP(=O)(O)O)C(=O)O | 870 | 390 | – | – |
| O=C(O)C(O)CCCCCCOP(=O)(O)O (centres undefined) | 270 | 190 | – | – |
| O=C(O)CNCP(=O)(O)O [GLYPHOSATE] | 260 | 330 | – | – |

Further lines, with some results ahead:

| Ki [1] [µM] | Ki [2] [µM] | IC50 [4] [µM] | SMILES | Ki [3] [µM] |
| --- | --- | --- | --- | --- |
| 1200 | 1000 | – | C[C@H](OP(=O)(O)O)C(=O)O | – |
| – | – | 132 | O=C(O)CN(C[C@@H](O)[C@@H](O)[C@H](O)[C@H](O)COP(=O)(O)O)CP(=O)(O)O | 0.37 |
| 1000 | 540 | – | O=C(O)C(CCCCCCO)OP(=O)(O)O (centres undefined) | – |
